≈ marks a conversion by molar mass, not a printed value. Where two headings read alike, the source gives them in different places.

One assay relates to Enterobacter aerogenes. The assay can be described thus: minimum inhibitory concentration (MIC), agar dilution. Type of assay: cell-based. To be noted: for MIC: Klebsiella aerogenes. Here is the method:
(§1) The minimum inhibitory concentration (MIC) for the compound of Example 19, i.e., (2-nitrophenyl)-iodonium 2,2-dimethyl-4,6-dioxo-1,3-dioxan-5-ylide was determined for 9 bacteria (using nutrient agar) and 5 yeast and fungi (using malt yeast agar). A one percent solution of this test compound (i.e., the compound of Example 19) was prepared in a mixture of acetone-water. Nutrient agar was prepared at pH 6.8 using deionized water according to standard Difco procedures. Malt yeast agar was prepared by adding 3 g Bacto yeast extract and 42 g Bacto Malt agar per liter of deionized water. The agar (nutrient agar when testing with bacteria and malt yeast agar when testing with yeast and fungi) was dispensed in 30 mL aliquots into 25×200 millimeter (mm) test tubes, capped and autoclaved for 15 min at 115° C. The test tubes containing the agar were cooled in a water bath until the temperature of the agar was 48° C. and then an appropriate amount of the one percent solution of the test compound was added (except in the controls where no test compound was added with the acetone-water) to the respective test tubes so that final concentrations of 500, 250, 100, 50, 25, 10, 5, 2.5, 1.0 and 0 parts per million (ppm) of the test compound in the agar were obtained. The agar solutions were each mixed and poured into individual petri plates so that each petri plate contained agar having a known concentration of test compound dispersed therein. After drying for 24 hr, the petri plates were inoculated with bacteria when the petri plates contained nutrient broth agar or with fungi and yeast when the petri plates contained malt yeast agar.
(§2) The inoculation with bacteria was accomplished using the following procedure. Twenty-four hr cultures of each of the bacteria were prepared by incubating the respective bacteria in tubes containing nutrient broth for 24 hr at 30° C. in a shaker. Dilutions of each of the 24 hr cultures were made so that 9 separate suspensions (one for each of the 9 test bacteria) were made, each containing about 10^8 colony forming units (CFU) per mL of suspension of a particular bacteria. Aliquots of 0.3 mL of each of the above suspensions were used to fill individual wells of a Steer's Replicator. For each microbial suspension, 0.3 mL was used to fill 3 wells (i.e., 3 wells of 0.3 mL each) so that for the 9 different bacteria 27 wells were filled. The Steer's Replicator was then used to inoculate the petri plates.
(§3) The petri plates were incubated at 30° C. for 48 hr and then read to determine if the test compound (i.e., the compound of Example 19) which was incorporated into the agar prevented growth of the respective bacteria. The minimum inhibitory concentration (MIC) for each bacteria was defined as the lowest concentration of the test compound which prevented growth of that bacteria.
(§4) In a similar procedure, the MIC (in ppm) of the compound of Example 11 (i.e., (2-nitrophenyl)-iodonium 2,6-dioxocyclohexylide) for various organisms was determined at an acid pH (about 6.8) and at an alkaline pH (about 8.2).
(§5) Using similar procedures, the MIC's (in ppm) of various compounds of Formula I and/or Formula II were determined for the organisms Enterobacter aerogenes and Bacillus subtilis in a neutral solution (pH about 6.8) and in an alkaline medium (pH about 8.2).
A general note: In agar dilution, organisms are placed on agar that contains the substance at set levels.

A further assay concerns Bacillus subtilis. Described as above. Type of assay: cell-based. To be noted: for MIC: Bacillus subtilis. Here is the method:
as §1, §2, §3, §4, §5

[1] abbreviates: alkaline growth medium (pH = 8.2), read-out: MIC (AEA).
Setting [2] is: neutral growth medium (pH = 6.8), read-out: MIC (NEA).
[3] abbreviates: alkaline growth medium (pH = 8.2), read-out: MIC (ABS).
[4] abbreviates: neutral growth medium (pH = 6.8), read-out: MIC (NBS).
Where [5] appears, read: alkaline growth medium (pH = 8.2).
[6] abbreviates: neutral growth medium (pH = 6.8).

Usually MIC stands for the smallest concentration in the dilution series that meets the test's criterion for growth inhibition. Turning to `O=C1CCC(=O)[C-]1[I+]c1ccccc1[N+](=O)[O-]` [Example 10, (2-Nitrophenyl)-iodonium 2,5-dioxocyclopentyl-1-ylide], the MIC with Enterobacter aerogenes (setting [1]) was greater than 500 µg/mL; with Enterobacter aerogenes (setting [2]), no more than 10 µg/mL; in the assay with Bacillus subtilis (setting [3]) it was greater than 500 µg/mL; in the assay with Bacillus subtilis (setting [4]), 25 µg/mL (≈ 72.4 µM).

In the case of `CC1(C)CC(=O)[C-]([I+]c2ccccc2S(C)(=O)=O)C(=O)C1` [Example 12, ((2-Methylsulfonyl)phenyl)-iodonium 4,4-dimethyl-2,6-dioxocyclohexan-1-ylide], the MIC is greater than 500 µg/mL with Enterobacter aerogenes (setting [1]), greater than 500 µg/mL in the assay with Enterobacter aerogenes (setting [2]), 100 µg/mL (≈ 238 µM) in the assay with Bacillus subtilis (setting [3]) and 250 µg/mL (≈ 595 µM) in the assay on Bacillus subtilis (setting [4]).

On to `CC1(C)CC(=O)[C-]([I+]c2ccccc2[N+](=O)[O-])C(=O)C1` [Example 14, (2-Nitrophenyl)-iodonium 4,4-dimethyl-2,6-dioxocyclohexylide], for which the MIC is no more than 1 µg/mL with Enterobacter aerogenes (setting [1]), 2.5 µg/mL (≈ 6.46 µM) in the assay on Enterobacter aerogenes (setting [2]), no more than 1 µg/mL with Bacillus subtilis (setting [3]) and 2.5 µg/mL (≈ 6.46 µM) in the assay on Bacillus subtilis (setting [4]).

In the case of `CC1CC(=O)[C-]([I+]c2ccccc2[N+](=O)[O-])C(=O)C1` [Example 15, (2-Nitrophenyl)-iodonium 4-methyl-2,6-dioxocyclohexan-1-ylide], the MIC in the assay with Enterobacter aerogenes (setting [1]) was 100 µg/mL (≈ 268 µM); in the assay on Enterobacter aerogenes (setting [2]), no more than 10 µg/mL; in the assay on Bacillus subtilis (setting [3]), no more than 10 µg/mL; with Bacillus subtilis (setting [4]) it was no more than 10 µg/mL.

In the case of `Cc1ccc([I+][C-]2C(=O)OC(C)(C)OC2=O)c([N+](=O)[O-])c1` [Example 16, (4-Methyl-2-nitrophenyl)-iodonium 2,2-dimethyl-4,6-dioxo-1,3-dioxan-5-ylide], the MIC in the assay on Enterobacter aerogenes (setting [1]) stood at 10 µg/mL (≈ 24.7 µM); in the assay with Enterobacter aerogenes (setting [2]), 2.5 µg/mL (≈ 6.17 µM); with Bacillus subtilis (setting [3]) it was 5 µg/mL (≈ 12.3 µM); in the assay on Bacillus subtilis (setting [4]), 2.5 µg/mL (≈ 6.17 µM).

On to `Cc1ccc(I=C2C(=O)OC(C)(C)OC2=O)c([N+](=O)[O-])c1C` [Example 17, (3,4-Dimethyl-2-nitrophenyl)-iodonium 2,2-dimethyl-4,6-dioxo-1,3-dioxan-5-ylide], for which the “MIC (AEA)” value in the assay on Enterobacter aerogenes (setting [5]) was 25 ppm. Further, the “MIC (NEA)” value against Enterobacter aerogenes (setting [6]) worked out at 25 ppm. In addition, the “MIC (ABS)” value against Bacillus subtilis (setting [5]) is less than 10 ppm. Also, the “MIC (NBS)” value in the assay on Bacillus subtilis (setting [6]) is less than 10 ppm.

`CC1(C)OC(=O)[C-]([I+]c2ccc(Cl)cc2[N+](=O)[O-])C(=O)O1` [Example 18, (4-chloro-2-nitrophenyl)-iodonium 2,2-dimethyl-4,6-dioxo-1,3-dioxan-5-ylide]: the MIC in the assay with Enterobacter aerogenes (setting [1]) worked out at 250 µg/mL (≈ 587 µM); in the assay with Enterobacter aerogenes (setting [2]), 100 µg/mL (≈ 235 µM); in the assay with Bacillus subtilis (setting [3]), 250 µg/mL (≈ 587 µM); in the assay on Bacillus subtilis (setting [4]) it was 100 µg/mL (≈ 235 µM).

For `COc1ccc([I+][C-]2C(=O)OC(C)(C)OC2=O)c([N+](=O)[O-])c1` [Example 20, (4-Methoxy-2-nitrophenyl)-iodonium 2,2-dimethyl-4,6-dioxo-1,3-dioxan-5-ylide], the minimal inhibitory concentration (MIC) with Enterobacter aerogenes (setting [1]) is 25 µg/mL (≈ 59.4 µM); in the assay on Enterobacter aerogenes (setting [2]), no more than 10 µg/mL; with Bacillus subtilis (setting [3]), 25 µg/mL (≈ 59.4 µM); in the assay with Bacillus subtilis (setting [4]), no more than 10 µg/mL.

Turning to `CC1(C)OC(=O)[C-]([I+]c2ccccc2S(C)(=O)=O)C(=O)O1` [Example 21, ((2-Methylsulfonyl)phenyl)-iodonium 2,2-dimethyl-4,6-dioxo-1,3-dioxan-5-ylide], the MIC in the assay on Enterobacter aerogenes (setting [1]) is greater than 500 µg/mL; in the assay with Enterobacter aerogenes (setting [2]), greater than 500 µg/mL; with Bacillus subtilis (setting [3]), 50 µg/mL (≈ 118 µM); in the assay on Bacillus subtilis (setting [4]), 25 µg/mL (≈ 58.9 µM).

Regarding `O=c1oc2ccc(F)cc2c(=O)[c-]1[I+]c1ccccc1[N+](=O)[O-]` [Example 22, (2-Nitrophenyl)-iodonium 6-fluoro-3,4-dihydro-2,4-dioxo-2H-benzopyran-3-ylide], the MIC in the assay with Enterobacter aerogenes (setting [1]) was 250 µg/mL (≈ 585 µM); in the assay with Enterobacter aerogenes (setting [2]), no more than 10 µg/mL; in the assay on Bacillus subtilis (setting [3]), 100 µg/mL (≈ 234 µM); in the assay on Bacillus subtilis (setting [4]), no more than 10 µg/mL.

Turning to `O=c1oc2ccc(Br)cc2c(=O)[c-]1[I+]c1ccccc1[N+](=O)[O-]` [Example 23, (2-Nitrophenyl)-iodonium 6-bromo-3,4-dihydro-2,4-dioxo-2H-benzopyran-3-ylide], the minimal inhibitory concentration (MIC) in the assay with Enterobacter aerogenes (setting [1]) is greater than 500 µg/mL; in the assay on Enterobacter aerogenes (setting [2]) it was greater than 500 µg/mL; with Bacillus subtilis (setting [3]) it was 250 µg/mL (≈ 512 µM); with Bacillus subtilis (setting [4]), 100 µg/mL (≈ 205 µM).

With `O=C(O)c1ccc2oc(=O)[c-]([I+]c3ccccc3[N+](=O)[O-])c(=O)c2c1` [Example 26, (2-Nitrophenyl)-iodonium 6-carboxy-3,4-diohydro-2,4-dioxo-2H -benzopyran-3-ylide], the MIC was 250 µg/mL (≈ 552 µM) with Enterobacter aerogenes (setting [1]), 250 µg/mL (≈ 552 µM) in the assay with Enterobacter aerogenes (setting [2]), 250 µg/mL (≈ 552 µM) in the assay with Bacillus subtilis (setting [3]) and no more than 10 µg/mL in the assay with Bacillus subtilis (setting [4]).

In the case of `CS(=O)(=O)c1ccccc1[I+][c-]1c(=O)oc2ccc(Cl)cc2c1=O` [Example 27, ((2-Methylsulfonyl)phenyl)-iodonium 6-chloro-3,4-dihydro-2,4-dioxo-2H-benzopyran-3-ylide], the MIC in the assay with Enterobacter aerogenes (setting [1]) is greater than 500 µg/mL; in the assay with Enterobacter aerogenes (setting [2]), greater than 500 µg/mL; in the assay with Bacillus subtilis (setting [3]), no more than 10 µg/mL; in the assay with Bacillus subtilis (setting [4]), no more than 10 µg/mL.

For `COc1ccc2oc(=O)[c-]([I+]c3ccccc3S(C)(=O)=O)c(=O)c2c1` [Example 28, ((2-Methylsulfonyl)phenyl)-iodonium 3,4-dihydro-6-methoxy-2,4-dioxo-2H-benzopyran-3-ylide], the MIC was greater than 500 µg/mL with Enterobacter aerogenes (setting [1]), greater than 500 µg/mL in the assay with Enterobacter aerogenes (setting [2]), no more than 10 µg/mL with Bacillus subtilis (setting [3]) and no more than 10 µg/mL with Bacillus subtilis (setting [4]).

In the case of `CS(=O)(=O)c1ccccc1[I+][c-]1c(=O)oc2ccc(C(=O)O)cc2c1=O` [Example 29, ((2-Methylsulfonyl)phenyl)-iodonium 6-carboxy-3,4-dihydro-2,4-dioxo-2H-benzopyran-3-ylide], the MIC was greater than 500 µg/mL in the assay on Enterobacter aerogenes (setting [1]), greater than 500 µg/mL in the assay with Enterobacter aerogenes (setting [2]), no more than 10 µg/mL with Bacillus subtilis (setting [3]) and no more than 10 µg/mL in the assay on Bacillus subtilis (setting [4]).

`CS(=O)(=O)c1ccccc1[I+][c-]1c(=O)oc2ccc(Br)cc2c1=O` [Example 30, ((2-Methylsulfonyl)phenyl)-iodonium 6-bromo-3,4-dihydro-2,4-dioxo-2H-benzopyran-3-ylide]: the MIC in the assay with Enterobacter aerogenes (setting [1]) was greater than 500 µg/mL; in the assay on Enterobacter aerogenes (setting [2]), greater than 500 µg/mL; with Bacillus subtilis (setting [3]) it was no more than 10 µg/mL; with Bacillus subtilis (setting [4]), no more than 10 µg/mL.

On to `O=c1oc2ccccc2c(=O)[c-]1[I+]c1ccccc1[N+](=O)[O-]` [Example 32, (2-Nitrophenyl)-iodonium 3,4-dihydro-2,4-dioxo-2H-benzopyran-3-ylide], for which the MIC is 25 µg/mL (≈ 61.1 µM) in the assay with Enterobacter aerogenes (setting [1]), no more than 10 µg/mL with Enterobacter aerogenes (setting [2]), no more than 10 µg/mL in the assay with Bacillus subtilis (setting [3]) and no more than 10 µg/mL in the assay with Bacillus subtilis (setting [4]).

For the compound `COc1ccc2oc(=O)[c-]([I+]c3ccccc3[N+](=O)[O-])c(=O)c2c1` [Example 33, (2-Nitrophenyl)-iodonium 3,4-dihydro-6-methoxy-2,4-dioxo-2H-benzopyran-3-ylide], the MIC is greater than 500 µg/mL in the assay with Enterobacter aerogenes (setting [1]), greater than 500 µg/mL in the assay on Enterobacter aerogenes (setting [2]), no more than 10 µg/mL with Bacillus subtilis (setting [3]) and no more than 10 µg/mL in the assay with Bacillus subtilis (setting [4]).

Consider `Cc1cccc2c(=O)[c-]([I+]c3ccccc3[N+](=O)[O-])c(=O)oc12` [Example 34, (2-Nitrophenyl)-iodonium 3,4-dihydro-8-methyl-2,4-dioxo-2H-benzopyran-3-ylide], for which the MIC in the assay with Enterobacter aerogenes (setting [1]) was 500 µg/mL (≈ 1180 µM); with Enterobacter aerogenes (setting [2]), 500 µg/mL (≈ 1180 µM); in the assay with Bacillus subtilis (setting [3]) it was 25 µg/mL (≈ 59.1 µM); in the assay with Bacillus subtilis (setting [4]), no more than 10 µg/mL.

With `CCn1c(=O)[c-]([I+]c2ccccc2[N+](=O)[O-])c(=O)n(CC)c1=S` [Example 36, (2-Nitrophenyl)-iodonium 1,3-diethylhexahydro-4,6-dioxo-2-thiopyrimidin-5-ylide], the minimum inhibitory concentration (MIC) in the assay on Enterobacter aerogenes (setting [1]) was greater than 500 µg/mL; in the assay with Enterobacter aerogenes (setting [2]), 500 µg/mL (≈ 1120 µM); in the assay with Bacillus subtilis (setting [3]), greater than 500 µg/mL; with Bacillus subtilis (setting [4]), greater than 500 µg/mL.

Turning to `O=c1[nH]c2ccccc2c(=O)[c-]1[I+]c1ccccc1[N+](=O)[O-]` [Example 41, (2-Nitrophenyl)-iodonium 1,2,3,4-tetrahydro-2,4-dioxoquinolin-3-ylide], the minimal inhibitory concentration (MIC) is greater than 500 µg/mL in the assay on Enterobacter aerogenes (setting [1]), no more than 10 µg/mL with Enterobacter aerogenes (setting [2]), 500 µg/mL (≈ 1230 µM) with Bacillus subtilis (setting [3]) and no more than 10 µg/mL in the assay with Bacillus subtilis (setting [4]).

In the case of “(2-Nitrophenyl)-iodonium 3,4,5,6-tetrahydro-4,6-doxo-5-pyrimidinylide [Example 35]”, the “MIC (AEA)” value in the assay with Enterobacter aerogenes (setting [5]) is recorded as greater than 500 ppm.
